In patent US9060515B2, “Heterocyclic urea compounds” (BIOTA EUROPE LTD, priority 2011, dated 2015):
Converted amounts (≈) assume the structure as drawn. Where two headings read alike, the source gives them in different places.

Experiments:
Type in all cases: cell-based
S. pyogenes (ATCC 51339) = experiment: Antibacterial susceptibility testing (MIC, broth microdilution or agar dilution), S. pyogenes; details: Streptococcus pyogenes, ATCC51339; read-out: S. pyogenes (ATCC 51339) minimal inhibitory concentration (MIC)
How it was run: (§1)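 MICs by CLSI (M7-A7) broth microdilution or agar dilution, against reference ATCC strains as listed.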

S. aureus (ATCC 29213) = experiment: Antibacterial susceptibility testing (MIC, broth microdilution or agar dilution), S. aureus
How it was run: as §1

E. faecalis (ATCC 29212) = experiment: Antibacterial susceptibility testing (MIC, broth microdilution or agar dilution), E. faecalis
Method: Compounds of the invention were tested for antimicrobial activity by susceptibility testing in liquid or on solid media. MICs for compounds against each strain were determined by the broth microdilution or agar dilution method according to the guidelines of the Clinical Laboratories and Standards Institute, formerly the National Committee for Clinical Laboratory Standards (Clinical Laboratories and Standards Institute. Methods for Dilution Antimicrobial Susceptibility Tests for Bacteria That Grow Aerobically; Approved Standard—Seventh Edition. Document M7-A7. CLSI, Wayne, Pa., 2006; Clinical Laboratories and Standards Institute. The Gram positive bacterial strains tested include S. aureus (Staphylococcus aureus (Isolate ID ATCC 29213)), E. faecalis (Enterococcus faecalis (Isolate ID ATCC 29212)) and S. pyogenes (Streptococcus pyogenes (Isolate ID ATCC 51339)). The Gram negative bacterial strains tested include H. influenzae (Haemophilus influenzae (Isolate ID ATCC 49247)).

[1] = Staphylococcus aureus, ATCC29213; read-out: S. aureus (ATCC 29213) minimal inhibitory concentration (MIC)
[2] = Enterococcus faecalis, ATCC29212; read-out: E. faecalis (ATCC 29212) minimal inhibitory concentration (MIC)

MIC (S. pyogenes (ATCC 51339)) | MIC (S. aureus (ATCC 29213); [1]) | MIC (E. faecalis (ATCC 29212); [2]) | SMILES | MIC (S. aureus (ATCC 29213); Staphylococcus aureus, ATCC29213, read-out: S. aureus (ATCC 29213) minimal inhibitory concentration (MIC)) | MIC (E. faecalis (ATCC 29212); Enterococcus faecalis, ATCC29212, read-out: E. faecalis (ATCC 29212) minimal inhibitory concentration (MIC))
16 mg/L (≈ 39.7 µM) | 2 mg/L (≈ 4.96 µM) | ≤ 1 mg/L | CCNC(=O)Nc1cc(Nc2cccc(C)c2)c(C(=O)Nc2cccc(C)c2)cn1 [Compound 1, 6-(3-ethylureido)-N-m-tolyl-4-(m-tolylamino)nicotinamide] | – | –
4 mg/L (≈ 9.76 µM) | ≤ 1 mg/L | ≤ 1 mg/L | CCNC(=O)Nc1cc(Nc2ccccc2)c(C(=O)Nc2cccc(Cl)c2)cn1 [Compound 4] | – | –
≤ 1 mg/L | ≤ 1 mg/L | ≤ 1 mg/L | CCNC(=O)Nc1cc(Nc2cccnc2)c(C(=O)Nc2ccccc2)cn1 [Compound 13, 6-(3-ethylureido)-N-phenyl-4-(pyridin-3-ylamino)nicotinamide] | – | –
2 mg/L (≈ 5.33 µM) | ≤ 1 mg/L | ≤ 1 mg/L | CCNC(=O)Nc1cc(Nc2ccccc2)c(C(=O)Nc2ccccc2)cn1 [Compound 17, 6-(3-ethylureido)-N-phenyl-4-(phenylamino)nicotinamide] | – | –
2 mg/L (≈ 5.14 µM) | ≤ 1 mg/L | ≤ 1 mg/L | CCNC(=O)Nc1cc(Nc2ccccc2)c(C(=O)Nc2cccc(C)c2)cn1 [Compound 18, 6-(3-ethylureido)-4-(phenylamino)-N-m-tolylnicotinamide] | – | –
8 mg/L (≈ 20.5 µM) | – | 2 mg/L (≈ 5.12 µM) | CCNC(=O)Nc1cc(NCc2cccnc2)c(C(=O)Nc2ccccc2)cn1 [Compound 25, 6-(3-ethylureido)-N-phenyl-4-(pyridin-3-ylmethylamino)nicotinamide] | – | –
8 mg/L (≈ 20.4 µM) | – | 8 mg/L (≈ 20.4 µM) | CCNC(=O)Nc1cc(NCc2cccnc2)c(C(=O)Nc2cccnc2)cn1 [Compound 26, 6-(3-ethylureido)-N-(pyridin-3-yl)-4-(pyridin-3-ylmethylamino)nicotinamide] | – | –
≤ 1 mg/L | – | ≤ 1 mg/L | CCNC(=O)Nc1cc(Nc2ccccc2)c(C(=O)NCc2cccnc2)cn1 [Compound 28, 6-(3-ethylureido)-4-(phenylamino)-N-(pyridin-3-ylmethyl)nicotinamide] | – | –
– | 2 mg/L (≈ 3.9 µM) | ≤ 1 mg/L | CCNC(=O)Nc1cc(Nc2ccc(C#N)cc2)c(C(=O)Nc2ccc(CN3CCN(C)CC3)cc2)cn1 [Compound 205, 4-[(4-cyanophenyl)amino]-6-[(ethylcarbamoyl)amino]-N-{4-[(4-methylpiperazin-1-yl)methyl]phenyl}pyridine-3-carboxamide] | – | –
– | – | – | CCNC(=O)Nc1cc(Nc2ccccc2)c(C(=O)Nc2ccc(CP(=O)(OCC)OCC)cc2)cn1 [Compound 206] | ≤ 1 mg/L | ≤ 1 mg/L
– | 4 mg/L (≈ 9.25 µM) | ≤ 1 mg/L | CCNC(=O)Nc1cc(Nc2ccccc2)c(C(=O)Nc2ccc(C(=O)NC)cc2)cn1 [Compound 213, 6-[(ethylcarbamoyl)amino]-N-[4-(methylcarbamoyl)phenyl]-4-(phenylamino)pyridine-3-carboxamide] | – | –
– | 4 mg/L (≈ 7.65 µM) | ≤ 1 mg/L | CCNC(=O)Nc1cc(Nc2ccccc2)c(C(=O)Nc2ccc(CN3CCS(=O)(=O)CC3)cc2)cn1 [Compound 214, N-{4-[(1,1-dioxidothiomorpholin-4-yl)methyl]phenyl}-6-[(ethylcarbamoyl)amino]-4-(phenylamino)pyridine-3-carboxamide] | – | –
– | ≤ 1 mg/L | ≤ 1 mg/L | CCNC(=O)Nc1cc(Nc2ccc(F)c(F)c2)c(C(=O)Nc2ccc(CCC(=O)OCC)cc2)cn1 [Compound 215, ethyl 3-{4-[({4-[(3,4-difluorophenyl)amino]-6-[(ethylcarbamoyl)amino]pyridin-3-yl}carbonyl)amino]phenyl}propanoate] | – | –
– | 4 mg/L (≈ 7.35 µM) | ≤ 1 mg/L | CCNC(=O)Nc1cc(Nc2cc(Cl)cc(Cl)c2)c(C(=O)Nc2ccc(CCC(=O)OCC)cc2)cn1 [Compound 225, ethyl 3-{4-[({4-[(3,5-dichlorophenyl)amino]-6-[(ethylcarbamoyl)amino]pyridin-3-yl}carbonyl)amino]phenyl}propanoate] | – | –
– | 2 mg/L (≈ 3.79 µM) | ≤ 1 mg/L | CCNC(=O)Nc1cc(Nc2ccc(F)c(Cl)c2)c(C(=O)Nc2ccc(CCC(=O)OCC)cc2)cn1 [Compound 226, ethyl 3-{4-[({4-[(3-chloro-4-fluorophenyl)amino]-6-[(ethylcarbamoyl)amino]pyridin-3-yl}carbonyl)amino]phenyl}propanoate] | – | –
